One may read the ΔTm as the change in melting temperature against a reference sample.

Test [1] relates to F-21-T (DNA, G4) GGGTTAGGGTTAGGGTTAGGG
Briefly: FRET-melting. Conditions: 10 mM KCl, 90 mM LiCl; 10 mM lithium cacodylate pH 7.3; 1 µM compound, 0.2 µM DNA.

Test [2] relates to F-CEB25-WT-T (DNA, G4) AGGGTGGGTGTAAGTGTGGGTGGGT
Briefly: FRET-melting. Conditions: 1 mM KCl, 99 mM LiCl; 10 mM lithium cacodylate pH 7.3; 1 µM compound, 0.2 µM DNA.

Test [3] concerns c-myc* (DNA, G4) TGAGGGTGGGTAGGGTGGGTAA
Briefly: denaturing gel electrophoresis, 3'-exonuclease digestion. Conditions: 100 mM KCl or KClO4; covalent; platination mainly A21/A22, also A12/G13; 18 h, 32 °C, 10 µM DNA.

In test [4] the test system is 22AG (DNA, G4) AGGGTTAGGGTTAGGGTTAGGG
Briefly: G4-FID, TO-PRO-3 displacement. As to conditions: 100 mM KCl; 10 mM lithium cacodylate pH 7.3, 1% DMSO; TO-PRO-3 displaced; 1 µM compound, 0.25 µM DNA.

In test [5] the test system is c-myc (myc22) (DNA, G4) TGAGGGTGGGTAGGGTGGGTAA
Briefly: G4-FID, TO-PRO-3 displacement. Conditions: 100 mM KCl; 10 mM lithium cacodylate pH 7.3, 1% DMSO; TO-PRO-3 displaced; 1 µM compound, 0.25 µM DNA.

Test [6] relates to CEB25-WT (DNA, G4) AAGGGTGGGTGTAAGTGTGGGTGGGT
Briefly: G4-FID, TO-PRO-3 displacement. As to conditions: 100 mM KCl; 10 mM lithium cacodylate pH 7.3, 1% DMSO; TO-PRO-3 displaced; 1 µM compound, 0.25 µM DNA.

Consider `Cc1ccc(-c2cc(-c3ccccn3)nc(-c3ccccn3)c2)cc1.[Cl-].[Cl][Pt+]` [Pt-ttpy], for which the shift in melting temperature (ΔTm) in test [1] and in test [2] was over 10 °C each time. Also, in test [3], the binding result is “yes”.
Consider `CN(C)c1ccc(/C=C/c2cc(-c3ccccn3)nc(-c3ccccn3)n2)cc1.[Cl-].[Cl][Pt+]` [Pt-vpym, Chloro-(E)-4-(2-(2,6-di(pyridin-2-yl)pyrimidin-4-yl)vinyl)-N,N-dimethylaniline-platinum(II) Chloride], for which the “% TO-PRO-3 displacement” value in test [4], in test [5] and in test [6] was ~ 30% each time.
